Data taken from ChEMBL document CHEMBL4184081, “Discovery of potent and selective inhibitors of calmodulin-dependent kinase II (CaMKII)” (Bioorg Med Chem Lett, 2018).
Converted amounts (≈) assume the structure as drawn.

Experiments:
[1] = molecular target: Voltage-gated inwardly rectifying potassium channel KCNH2 (Homo sapiens, UniProt Q12809); assay: Inhibition of human ERG
[2] = Thermodynamic aqueous solubility of the compound in pH 7.2; type: physicochemical; conditions: buffer, read-out: Therm_solubility
[3] = Unbound plasma concentration in human; type: ADME, organism-based
[4] = Unbound plasma concentration in rat; type: ADME, organism-based
[5] = Half life in rat at 1 mg/kg, iv; type: ADME, organism-based; conditions: in vivo
[6] = Clearance in rat at 1 mg/kg, iv; type: ADME, organism-based; conditions: in vivo
[7] = Half life in human liver microsomes; type: ADME, microsome
[8] = Thermodynamic aqueous solubility of the compound in pH 2.2; type: physicochemical; conditions: buffer, read-out: Therm_solubility
[9] = molecular target: CaM kinase II delta/gamma (Rattus norvegicus, UniProt P11730+P15791); assay: Inhibition of CaMK2gamma/delta in neonatal rat ventricular myocytes assessed as phospholamban phosphorylation after 4 hrs by Hoechst 33342 fluorescence based assay; type: cell-based
CaM kinase II alpha/beta = CaM kinase II alpha/beta (Rattus norvegicus, UniProt P08413+P11275); assay: Inhibition of CaMK2alpha/beta in neonatal rat cortical neurons assessed as phospholamban phosphorylation after 4 hrs by Hoechst 33342 fluorescence-based assay; type: protein-complex assay
[10] = Half life in rat liver microsomes; type: ADME, microsome
[11] = Unbound plasma concentration in dog; type: ADME, organism-based, Canis lupus familiaris
[12] = Volume of distribution at steady state in rat at 1 mg/kg, iv; type: ADME, organism-based; conditions: in vivo, read-out: Vdss
[13] = Half life in dog liver microsomes; type: ADME, Canis lupus familiaris, microsome
[14] = AUC (0 to infinity) in rat at 5 mg/kg, po; type: ADME, organism-based; design: dose 5 mg/kg, time infinity, route oral; conditions: in vivo
Cytochrome P450 2C19 = Cytochrome P450 2C19 (Homo sapiens, UniProt P33261); assay: Inhibition of CYP2C19 (unknown origin); type: ADME
[15] = Oral bioavailability in rat at 5 mg/kg; type: ADME, organism-based; conditions: in vivo
Cytochrome P450 1A2 = molecular target: T1, Cytochrome P450 1A2 (Homo sapiens, UniProt P05177); assay: Inhibition of CYP1A2 (unknown origin); type: ADME
T1 sequence (P05177 whole entry): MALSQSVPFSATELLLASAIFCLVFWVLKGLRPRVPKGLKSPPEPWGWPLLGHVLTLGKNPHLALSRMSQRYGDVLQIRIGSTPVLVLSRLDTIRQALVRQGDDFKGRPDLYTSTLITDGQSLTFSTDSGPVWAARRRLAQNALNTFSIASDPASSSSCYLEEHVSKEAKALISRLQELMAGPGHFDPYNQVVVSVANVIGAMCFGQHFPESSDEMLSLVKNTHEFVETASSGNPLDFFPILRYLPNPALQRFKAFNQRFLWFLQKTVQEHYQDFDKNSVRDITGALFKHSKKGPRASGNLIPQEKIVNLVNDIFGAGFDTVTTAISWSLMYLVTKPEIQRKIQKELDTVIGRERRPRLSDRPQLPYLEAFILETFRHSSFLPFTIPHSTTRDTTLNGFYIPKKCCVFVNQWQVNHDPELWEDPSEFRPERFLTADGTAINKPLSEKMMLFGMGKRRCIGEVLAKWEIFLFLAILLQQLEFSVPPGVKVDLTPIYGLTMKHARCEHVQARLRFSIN

Cytochrome P450 2C9 = Cytochrome P450 2C9 (Homo sapiens, UniProt P11712); assay: Inhibition of CYP2C9 (unknown origin); type: ADME
Cytochrome P450 3A4 = Cytochrome P450 3A4 (Homo sapiens, UniProt P08684); assay: Inhibition of CYP3A4 (unknown origin); type: ADME
Cytochrome P450 2D6 = Cytochrome P450 2D6 (Homo sapiens, UniProt P10635); assay: Inhibition of CYP2D6 (unknown origin); type: ADME
Sequence of Cytochrome P450 2D6 (P10635 whole entry): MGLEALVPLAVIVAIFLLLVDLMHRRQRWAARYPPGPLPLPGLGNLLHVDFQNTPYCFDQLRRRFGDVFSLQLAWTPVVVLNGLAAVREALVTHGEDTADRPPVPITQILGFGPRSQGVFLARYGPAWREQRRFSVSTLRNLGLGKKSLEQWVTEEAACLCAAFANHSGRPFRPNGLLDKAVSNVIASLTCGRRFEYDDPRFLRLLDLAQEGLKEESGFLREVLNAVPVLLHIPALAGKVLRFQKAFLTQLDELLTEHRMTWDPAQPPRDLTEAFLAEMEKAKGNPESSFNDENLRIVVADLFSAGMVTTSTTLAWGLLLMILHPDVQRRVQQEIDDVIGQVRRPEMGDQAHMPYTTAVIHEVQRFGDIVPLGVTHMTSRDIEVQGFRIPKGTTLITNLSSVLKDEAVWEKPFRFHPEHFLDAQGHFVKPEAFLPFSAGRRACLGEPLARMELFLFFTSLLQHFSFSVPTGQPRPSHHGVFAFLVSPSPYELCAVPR

Sequence of Voltage-gated inwardly rectifying potassium channel KCNH2 (Q12809 whole entry): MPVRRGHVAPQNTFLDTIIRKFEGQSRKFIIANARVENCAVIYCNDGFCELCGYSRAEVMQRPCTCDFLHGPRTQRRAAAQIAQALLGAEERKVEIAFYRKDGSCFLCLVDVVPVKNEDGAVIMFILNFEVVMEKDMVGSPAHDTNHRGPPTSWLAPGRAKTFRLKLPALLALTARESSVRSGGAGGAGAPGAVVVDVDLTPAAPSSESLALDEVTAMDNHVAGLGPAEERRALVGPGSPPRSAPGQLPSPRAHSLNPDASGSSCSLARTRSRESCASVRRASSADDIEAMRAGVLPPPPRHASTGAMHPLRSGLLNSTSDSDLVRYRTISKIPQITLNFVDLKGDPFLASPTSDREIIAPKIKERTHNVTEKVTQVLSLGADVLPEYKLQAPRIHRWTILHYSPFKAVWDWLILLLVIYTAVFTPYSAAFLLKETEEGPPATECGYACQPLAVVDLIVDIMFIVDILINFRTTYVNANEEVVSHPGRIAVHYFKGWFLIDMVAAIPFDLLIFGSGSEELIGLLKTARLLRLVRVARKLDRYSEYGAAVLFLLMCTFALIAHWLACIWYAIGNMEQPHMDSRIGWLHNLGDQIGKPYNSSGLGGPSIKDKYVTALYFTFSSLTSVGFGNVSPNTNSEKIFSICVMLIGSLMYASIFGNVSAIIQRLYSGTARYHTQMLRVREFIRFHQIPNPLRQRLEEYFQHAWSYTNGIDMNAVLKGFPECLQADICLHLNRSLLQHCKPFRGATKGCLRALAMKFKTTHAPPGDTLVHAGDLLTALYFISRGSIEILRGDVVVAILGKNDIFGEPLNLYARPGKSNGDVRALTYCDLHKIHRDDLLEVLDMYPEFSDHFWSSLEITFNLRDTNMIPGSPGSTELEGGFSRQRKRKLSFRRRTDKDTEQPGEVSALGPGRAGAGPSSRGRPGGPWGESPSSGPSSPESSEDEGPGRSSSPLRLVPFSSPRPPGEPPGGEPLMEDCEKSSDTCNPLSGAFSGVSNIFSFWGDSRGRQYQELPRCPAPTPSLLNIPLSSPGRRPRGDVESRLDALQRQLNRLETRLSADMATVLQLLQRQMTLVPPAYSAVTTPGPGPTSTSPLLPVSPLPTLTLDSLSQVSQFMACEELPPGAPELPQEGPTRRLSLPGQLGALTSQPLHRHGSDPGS
Sequence of CaM kinase II delta/gamma (P15791 whole entry): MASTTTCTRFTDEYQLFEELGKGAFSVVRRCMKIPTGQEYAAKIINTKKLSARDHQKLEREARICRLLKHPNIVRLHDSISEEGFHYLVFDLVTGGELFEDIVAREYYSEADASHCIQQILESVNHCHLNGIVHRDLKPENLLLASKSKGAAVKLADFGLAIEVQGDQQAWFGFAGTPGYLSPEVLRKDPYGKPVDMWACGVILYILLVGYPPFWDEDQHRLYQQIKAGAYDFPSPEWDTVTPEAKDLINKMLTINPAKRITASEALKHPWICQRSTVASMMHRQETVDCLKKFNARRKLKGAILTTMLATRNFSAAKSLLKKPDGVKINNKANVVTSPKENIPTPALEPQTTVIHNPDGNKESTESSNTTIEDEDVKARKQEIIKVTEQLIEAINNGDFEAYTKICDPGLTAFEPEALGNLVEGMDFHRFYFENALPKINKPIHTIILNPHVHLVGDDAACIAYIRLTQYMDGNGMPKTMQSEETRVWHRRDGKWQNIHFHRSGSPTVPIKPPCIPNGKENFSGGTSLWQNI
Sequence of CaM kinase II delta/gamma (P11730 whole entry): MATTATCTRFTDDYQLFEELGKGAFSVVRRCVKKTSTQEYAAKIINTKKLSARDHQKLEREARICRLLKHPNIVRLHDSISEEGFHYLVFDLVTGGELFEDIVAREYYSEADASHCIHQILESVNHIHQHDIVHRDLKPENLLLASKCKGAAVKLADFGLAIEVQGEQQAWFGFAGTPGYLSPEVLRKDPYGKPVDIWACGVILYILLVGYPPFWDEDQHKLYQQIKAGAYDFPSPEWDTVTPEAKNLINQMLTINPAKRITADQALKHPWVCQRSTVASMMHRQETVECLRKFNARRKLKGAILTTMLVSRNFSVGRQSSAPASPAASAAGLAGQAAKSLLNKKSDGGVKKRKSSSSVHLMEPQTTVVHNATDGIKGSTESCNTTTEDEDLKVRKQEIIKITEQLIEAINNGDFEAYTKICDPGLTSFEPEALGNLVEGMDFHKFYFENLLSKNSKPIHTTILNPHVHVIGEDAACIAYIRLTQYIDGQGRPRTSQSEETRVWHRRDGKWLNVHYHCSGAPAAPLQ
Sequence of CaM kinase II alpha/beta (P11275 whole entry): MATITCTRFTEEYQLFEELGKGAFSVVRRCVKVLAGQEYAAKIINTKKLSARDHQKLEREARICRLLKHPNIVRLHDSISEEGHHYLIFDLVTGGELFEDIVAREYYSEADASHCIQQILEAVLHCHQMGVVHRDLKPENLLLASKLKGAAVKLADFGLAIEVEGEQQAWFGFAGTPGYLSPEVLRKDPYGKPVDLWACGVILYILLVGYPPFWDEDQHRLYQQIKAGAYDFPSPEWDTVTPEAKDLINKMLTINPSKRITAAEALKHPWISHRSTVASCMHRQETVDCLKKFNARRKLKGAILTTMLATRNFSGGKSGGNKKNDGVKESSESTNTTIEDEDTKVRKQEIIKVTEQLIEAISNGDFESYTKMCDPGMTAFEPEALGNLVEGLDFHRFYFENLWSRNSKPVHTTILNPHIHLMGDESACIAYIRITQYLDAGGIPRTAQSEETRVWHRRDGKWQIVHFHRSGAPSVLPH
Sequence of CaM kinase II alpha/beta (P08413 whole entry): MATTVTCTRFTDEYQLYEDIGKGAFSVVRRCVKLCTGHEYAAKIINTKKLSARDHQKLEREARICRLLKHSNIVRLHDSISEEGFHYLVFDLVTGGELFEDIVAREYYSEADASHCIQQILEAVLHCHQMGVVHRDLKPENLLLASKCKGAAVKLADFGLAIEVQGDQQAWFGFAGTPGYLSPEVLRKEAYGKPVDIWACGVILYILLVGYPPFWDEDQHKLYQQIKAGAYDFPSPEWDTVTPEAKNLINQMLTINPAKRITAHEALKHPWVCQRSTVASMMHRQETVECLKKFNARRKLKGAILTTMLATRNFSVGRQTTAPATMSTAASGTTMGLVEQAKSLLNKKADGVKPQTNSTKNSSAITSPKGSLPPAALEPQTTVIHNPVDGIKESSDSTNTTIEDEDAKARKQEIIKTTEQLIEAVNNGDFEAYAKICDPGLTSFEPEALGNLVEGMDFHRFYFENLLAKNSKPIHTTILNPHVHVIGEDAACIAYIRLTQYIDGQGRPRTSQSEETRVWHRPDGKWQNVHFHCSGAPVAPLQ
Sequence of Cytochrome P450 2C9 (P11712 whole entry): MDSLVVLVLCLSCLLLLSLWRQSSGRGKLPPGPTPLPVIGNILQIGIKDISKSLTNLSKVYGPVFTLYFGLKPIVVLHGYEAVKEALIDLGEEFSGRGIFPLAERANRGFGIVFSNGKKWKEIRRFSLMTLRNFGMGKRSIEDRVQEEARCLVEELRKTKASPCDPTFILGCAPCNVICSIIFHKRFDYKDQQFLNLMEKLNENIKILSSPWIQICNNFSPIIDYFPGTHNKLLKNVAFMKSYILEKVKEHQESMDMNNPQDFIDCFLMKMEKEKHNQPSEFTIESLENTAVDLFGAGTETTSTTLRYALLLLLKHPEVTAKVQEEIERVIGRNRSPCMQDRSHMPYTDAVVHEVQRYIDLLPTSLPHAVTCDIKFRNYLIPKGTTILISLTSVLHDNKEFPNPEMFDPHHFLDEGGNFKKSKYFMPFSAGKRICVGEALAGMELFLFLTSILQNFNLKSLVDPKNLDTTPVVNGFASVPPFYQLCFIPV
Sequence of Cytochrome P450 2C19 (P33261 whole entry): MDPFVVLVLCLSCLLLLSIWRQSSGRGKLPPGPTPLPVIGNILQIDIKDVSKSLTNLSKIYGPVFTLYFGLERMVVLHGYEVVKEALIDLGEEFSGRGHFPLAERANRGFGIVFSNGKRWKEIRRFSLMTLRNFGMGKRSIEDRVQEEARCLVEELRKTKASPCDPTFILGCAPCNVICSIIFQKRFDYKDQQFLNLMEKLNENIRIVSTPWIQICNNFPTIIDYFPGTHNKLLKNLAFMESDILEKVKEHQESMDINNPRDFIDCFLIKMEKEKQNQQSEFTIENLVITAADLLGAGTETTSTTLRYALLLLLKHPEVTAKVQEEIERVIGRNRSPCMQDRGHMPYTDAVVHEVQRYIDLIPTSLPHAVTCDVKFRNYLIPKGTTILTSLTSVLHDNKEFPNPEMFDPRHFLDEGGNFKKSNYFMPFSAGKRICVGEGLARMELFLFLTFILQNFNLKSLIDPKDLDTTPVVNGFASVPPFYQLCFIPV

SMILES | IC50 [1] [nM] | solubility thermodynamic [2] [µg/mL] | fraction unbound [3] | fraction unbound [4] | half-life [5] [min] | clearance [6] [mL/min/kg] | half-life [7] [min] | solubility thermodynamic [8] [µg/mL] | EC50 [9] [nM] | EC50 (CaM kinase II alpha/beta) [nM] | half-life [10] [min] | fraction unbound [11] | Vd [12] [L/kg] | half-life [13] [min] | also measured
CCN(CC)CCNC(=O)c1ccnc(-c2cnn3ccc(-c4cccs4)nc23)c1 | 1170 |  |  |  |  |  |  |  |  |  |  |  |  |  | 
CCc1cc(C(=O)NC[C@H](C)N(CC)CC)cc(-c2cnn3ccc(-c4cccs4)nc23)n1 | 3280 |  |  |  |  |  |  |  |  |  |  |  |  |  | 
CCN(CC)[C@@H](C)CNC(=O)c1cc(-c2cnn3ccc(-c4cccs4)nc23)nc(N2CC(O)C2)c1 | > 30000 | 8400 (≈ 16.6 mM) | 0.177 | 0.363 | 353 | 80.8 | 58 | 15000 (≈ 29.7 mM) | 6.2 | 274 | 48 | 0.291 | 22.1 | 27 | 
CCN(CC)[C@@H](C)CNC(=O)c1cc(-c2cnn3ccc(-c4cccs4)nc23)nc(N2CC(OC)C2)c1 |  | 200 (≈ 0.385 mM) | 0.071 | 0.151 | 258 | 25.5 | 62 | > 20000 | 7.4 | 120 | 61 | 0.159 | 7.34 | 43 | AUC(0-inf) [14]: 3 µM·h; IC50 (Cytochrome P450 2C19): > 25000 nM; bioavailability [15]: 73%; IC50 (Cytochrome P450 1A2): > 25000 nM; IC50 (Cytochrome P450 2C9): > 25000 nM; IC50 (Cytochrome P450 3A4): > 25000 nM; IC50 (Cytochrome P450 2D6): > 25000 nM
CCN(CC)[C@@H](C)CNC(=O)c1ccnc(-c2cnn3ccc(-c4cccs4)nc23)c1 | 718 |  |  |  |  |  |  |  |  |  |  |  |  |  | 
